Assay results taken from patent US20230149362A1, “NEW CAPSULE COMPOSITION FOR PERORAL ADMINISTRATION” (Vicore Pharma AB, priority 2020, published 2023).
Counter-ions that a name gives are not always drawn. Like-named read-outs stand apart in the source and are kept apart here.

Assays:
Format in all cases: physicochemical
[1] = Compatibility study of C21 sodium salt with lipid-based ingredients and capsule shell components
Protocol: Experiments were then performed to assess the chemical compatibility of C21 with selected pharmaceutically-acceptable lipid-based ingredients (some, but not all, of which were also studied in Example 3 above), as well as the main soft shell gelatin capsule components, under accelerated conditions.
The compatibility study was performed by storing at 40° C. and 75% RH for eight weeks in a climatic chamber (Weiss Technik), during which an analysis of impurities formed was performed after four (T4) and eight (T8) weeks.
An additional experiment was performed by storing for eight weeks at room temperature in the laboratory (with controlled temperature and humidity).
Testing of C21 sodium salt in the absence of excipients was performed as a reference.
In Table 6, the generic names and the sources of the various excipients are the same as presented above, e.g. in Table 5.
Samples A0 to A16 and B1 were prepared in 20 mL glass vials, with two preparations being prepared for each time point. Samples C1 to C16 and D1 were prepared in 20 mL glass vials, with one preparation for each time point.
Assay and impurity evaluations were made using the same Waters UPLC Acquity system and essentially the same chromatographic conditions as described in Example 3 above.
The impurity analysis is summarized in Table 7 below, in which C21 assay values (I) and impurity values (II) are presented as % recovery and represent the average value obtained for each mixture on the two sample preparations.

[2] = Stability of aqueous solutions of C21 under four storage conditions (sensitivity to light); conditions: for Amount of Free C21, % of initial / Solution pH: sodium salt solution
Protocol: The stability of free C21 in 0.9% NaCl pH 9.4 was investigated.
Solutions of 1 mg/mL of C21 were studied for four weeks under four different storage conditions. The solution was filtered through a 0.22 sterile syringe filter to minimize bacterial growth during the stability test. The samples were analysed by HPLC for purity.
The results are summarised in Table 3 below, in which the amount of C21 is given as a percentage of the initial amount of drug. Solution pHs were also measured and are shown within parenthesis in Table 3.
The stability of the sodium salt of C21 was also investigated under the same storage conditions.
At the time for analysis of the one week samples, it was noted that the heating cabinet for storage of samples at 40° C. was broken. In view of this, these samples were thereafter kept at room temperature for three days.

[3] = Solubility of C21 sodium salt in aqueous vehicles; conditions: for solubility: thermodynamic from solid, saturation not reached, read-out: Concentration (solubility)
Protocol: In this experiment, C21 sodium salt (Syntagon AB) was added to the vehicle, small amounts at a time. About 20-30 mg of the sodium salt was easily dissolved in all the vehicles tested. Salt was continuously added to the same sample in an attempt to obtain a saturated solution. In this way, higher amounts, such as 40-60 mg/mL could be dissolved. The solubility is probably even higher than this in the vehicles tested, but this was not established in view of the limited amount of drug compound available.

[4] = T4 (four weeks), 40° C. and 75% RH
[5] = T8 (eight weeks), 40° C. and 75% RH
[6] = T8 (eight weeks), Ambient temp.
[7] = 40° C., dark, 1 week, heating cabinet found broken

C21 assay values (I) ([1]; T0): 98.2 % recovery | impurity values (II) ([1]; T0): 0.24 % recovery | C21 assay values (I) [1, 4]: 102.2 % recovery | impurity values (II) [1, 4]: 0.23 % recovery | C21 assay values (I) [1, 5]: 101.3 % recovery | impurity values (II) [1, 5]: 0.25 % recovery | C21 assay values (I) [1, 6]: 102.0 % recovery | impurity values (II) [1, 6]: 0.24 % recovery | light-induced degradation ([2]; aqueous solution, RT/light): light-induced degradation occurs | Amount of Free C21, % of initial ([2]; 5° C., dark, 1 week): 108 % of initial | Solution pH ([2]; 5° C., dark, 1 week): (8.5) | Amount of Free C21, % of initial ([2]; 5° C., dark, 2 weeks): 113 % of initial | Solution pH ([2]; 5° C., dark, 2 weeks): (8.4) | Amount of Free C21, % of initial ([2]; 5° C., dark, 3 weeks): 113 % of initial | Solution pH ([2]; 5° C., dark, 3 weeks): (8.5) | Amount of Free C21, % of initial ([2]; 5° C., dark, 4 weeks): 112 % of initial | Solution pH ([2]; 5° C., dark, 4 weeks): (8.5) | Amount of Free C21, % of initial ([2]; 5° C., dark, Initial): 100 % of initial | Solution pH ([2]; 5° C., dark, Initial): (8.3) | Amount of Free C21, % of initial [2, 7]: 111 % of initial | Solution pH [2, 7]: (8.6) | Amount of Free C21, % of initial ([2]; 40° C., dark, 2 weeks): 111 % of initial | Solution pH ([2]; 40° C., dark, 2 weeks): (8.5) | Amount of Free C21, % of initial ([2]; 40° C., dark, 3 weeks): 109 % of initial | Solution pH ([2]; 40° C., dark, 3 weeks): (8.7) | Amount of Free C21, % of initial ([2]; 40° C., dark, 4 weeks): 118 % of initial | Solution pH ([2]; 40° C., dark, 4 weeks): (8.1) | Amount of Free C21, % of initial ([2]; 40° C., dark, Initial): 100 % of initial | Solution pH ([2]; 40° C., dark, Initial): (8.3) | Amount of Free C21, % of initial ([2]; RT, dark, 1 week): 115 % of initial | Solution pH ([2]; RT, dark, 1 week): (8.6) | Amount of Free C21, % of initial ([2]; RT, dark, 2 weeks): 110 % of initial | Solution pH ([2]; RT, dark, 2 weeks): (8.8) | Amount of Free C21, % of initial ([2]; RT, dark, 3 weeks): 111 % of initial | Solution pH ([2]; RT, dark, 3 weeks): (8.8) | Amount of Free C21, % of initial ([2]; RT, dark, 4 weeks): 112 % of initial | Solution pH ([2]; RT, dark, 4 weeks): (8.2) | Amount of Free C21, % of initial ([2]; RT, dark, Initial): 100 % of initial | Solution pH ([2]; RT, dark, Initial): (8.3) | Amount of Free C21, % of initial ([2]; RT, light, 1 week): 108 % of initial | Solution pH ([2]; RT, light, 1 week): (8.4) | Amount of Free C21, % of initial ([2]; RT, light, 2 weeks): 96 % of initial | Solution pH ([2]; RT, light, 2 weeks): (8.0) | Amount of Free C21, % of initial ([2]; RT, light, 3 weeks): 72 % of initial | Solution pH ([2]; RT, light, 3 weeks): (8.3) | Amount of Free C21, % of initial ([2]; RT, light, 4 weeks): 9 % of initial | Solution pH ([2]; RT, light, 4 weeks): (7.3) | Amount of Free C21, % of initial ([2]; RT, light, Initial): 100 % of initial | Solution pH ([2]; RT, light, Initial): (8.3) | solubility ([3]; aqueous buffer, vehicle PBS pH 7.4, measured pH 9.4): > 40 mg/mL | solubility compared with free C21 ([3]; aqueous vehicles): considerably higher than free C21 | solubility ([3]; saline or isotonic, vehicle 0.9% NaCl, pH 9.3): > 40 mg/mL | amount that could be dissolved ([3]; vehicles tested (H2O, 0.9% NaCl, PBS), salt added continuously): 40 to 60 mg/mL | solubility ([3]; water, vehicle H2O, pH 9.8): > 65 mg/mL
SMILES: CCCCOC(=O)NS(=O)(=O)c1sc(CC(C)C)cc1-c1ccc(Cn2ccnc2)cc1 [C21 sodium salt, N-butyloxycarbonyl-3-(4-imidazol-1-ylmethylphenyl)-5-iso-butylthiophene-2-sulfonamide]
